Source: ChEMBL document CHEMBL1201862, “PubChem BioAssay data set” (2004)
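Values below derive from 48-hour exposures of cells grown in 96-well plates, with endpoints linearly interpolated between the two concentrations bracketing the appropriate inhibition level. GI50 = concentration required for 50% inhibition of growth.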 Calls of active or inactive are those of the source. Cut-off read from the data, not from the text of the source: active = GI50 up to about 1.1 µM and inactive = higher.

Experiments:
Test in all cases: DTP human tumour cell line panel, 48 h
NCI-H23 = test system: NCI-H23
U-251 = test system: U-251
SK-MEL-5 = test system: SK-MEL-5
HOP-62 = test system: HOP-62
MDA-N = test system: MDA-N
SK-MEL-28 = test system: SK-MEL-28
SR = test system: SR
COLO 205 = test system: COLO 205
CAKI-1 = test system: CAKI-1
SNB-19 = test system: SNB-19
KM12 = test system: KM12
RXF 393 = test system: RXF 393
KM-20L2 = test system: KM-20L2
HOP-92 = test system: HOP-92
HCT-15 = test system: HCT-15
HCC 2998 = test system: HCC 2998
Hs-578T = test system: Hs-578T
SNB-78 = test system: SNB-78
OVCAR-8 = test system: OVCAR-8
NCI/ADR-RES = test system: NCI/ADR-RES
MDA-MB-435 = test system: MDA-MB-435
HCT-116 = test system: HCT-116
UO-31 = test system: UO-31
SF-268 = test system: SF-268
HOP-18 = test system: HOP-18
786-0 = test system: 786-0
UACC-257 = test system: UACC-257
NCI-H522 = test system: NCI-H522
NCI-H460 = test system: NCI-H460
HT-29 = test system: HT-29
SK-OV-3 = test system: SK-OV-3
OVCAR-5 = test system: OVCAR-5
SK-MEL-2 = test system: SK-MEL-2
UACC-62 = test system: UACC-62
HL-60 = test system: HL-60
DU-145 = test system: DU-145
DLD-1 = test system: DLD-1
MCF7 = test system: MCF7
PC-3 = test system: PC-3
CCRF-CEM = test system: CCRF-CEM
EKVX = test system: EKVX
K562 = test system: K562
T47D = test system: T47D
OVCAR-4 = test system: OVCAR-4
TK-10 = test system: TK-10
M19-MEL = test system: M19-MEL
Malme-3M = test system: Malme-3M
NCI-H226 = test system: NCI-H226
A498 = test system: A498
SN12C = test system: SN12C
SF-539 = test system: SF-539
ACHN = test system: ACHN
DMS-114 = test system: DMS-114
M14 = test system: M14
DMS-273 = test system: DMS-273
OVCAR-3 = test system: OVCAR-3
MOLT-4 = test system: MOLT-4
SNB-75 = test system: SNB-75
IGROV-1 = test system: IGROV-1
SW-620 = test system: SW-620
LOX IMVI = test system: LOX IMVI
RPMI-8226 = test system: RPMI-8226
SF-295 = test system: SF-295
A549 = test system: A549
BT-549 = test system: BT-549
MDA-MB-231 = test system: MDA-MB-231
XF498 = test system: XF498
LXFL 529 = test system: LXFL 529

Q: For `COc1cc2c(cc1OC)C(Cl)C(c1ccc(Br)cc1)=C2Cl` (configuration not stated), which GI50 (NCI-H23) is on record?
A: 9.95 µM (inactive)

Q: What about the GI50 (U-251) of the same compound?
A: 10.2 µM (inactive)

Q: What about the GI50 (SK-MEL-5) of the same compound?
A: 14.4 µM (inactive)

Q: And the GI50 (HOP-62)?
A: 17.9 µM (inactive)

Q: What about the GI50 (MDA-N) of the same compound?
A: 3.23 µM (inactive)

Q: What about the GI50 (SK-MEL-28) of the same compound?
A: 14.8 µM (inactive)

Q: And the GI50 (SR)?
A: 2.62 µM (inactive)

Q: And the GI50 (COLO 205)?
A: 14.4 µM (inactive)

Q: What about the GI50 (CAKI-1) of the same compound?
A: 15.1 µM (inactive)

Q: And the GI50 (SNB-19)?
A: 16.7 µM (inactive)

Q: And the GI50 (KM12)?
A: 16.3 µM (inactive)

Q: And the GI50 (RXF 393)?
A: 11.2 µM (inactive)

Q: What about the GI50 (KM-20L2) of the same compound?
A: 18.5 µM (inactive)

Q: And the GI50 (HOP-92)?
A: 12.1 µM (inactive)

Q: What about the GI50 (HCT-15) of the same compound?
A: 8.18 µM

Q: And the GI50 (HCC 2998)?
A: 13.3 µM (inactive)

Q: What about the GI50 (Hs-578T) of the same compound?
A: 6.19 µM (inactive)

Q: What about the GI50 (SNB-78) of the same compound?
A: 13.5 µM (inactive)

Q: What about the GI50 (OVCAR-8) of the same compound?
A: 10.1 µM (inactive)

Q: And the GI50 (NCI/ADR-RES)?
A: 10.9 µM (inactive)

Q: What about the GI50 (MDA-MB-435) of the same compound?
A: 4.37 µM (inactive)

Q: What about the GI50 (HCT-116) of the same compound?
A: 9.16 µM (inactive)

Q: And the GI50 (UO-31)?
A: 8.65 µM (inactive)

Q: And the GI50 (SF-268)?
A: 11.1 µM (inactive)

Q: What about the GI50 (HOP-18) of the same compound?
A: 20.9 µM (inactive)

Q: And the GI50 (786-0)?
A: 3.94 µM (inactive)

Q: What about the GI50 (UACC-257) of the same compound?
A: 15.1 µM (inactive)

Q: What about the GI50 (NCI-H522) of the same compound?
A: 4.42 µM (inactive)

Q: What about the GI50 (NCI-H460) of the same compound?
A: 8.32 µM (inactive)

Q: And the GI50 (HT-29)?
A: 13.3 µM (inactive)

Q: What about the GI50 (SK-OV-3) of the same compound?
A: 16.1 µM (inactive)

Q: And the GI50 (OVCAR-5)?
A: 15.4 µM (inactive)

Q: And the GI50 (SK-MEL-2)?
A: 9.08 µM (inactive)

Q: What about the GI50 (UACC-62) of the same compound?
A: 11.2 µM (inactive)

Q: And the GI50 (HL-60)?
A: 5.46 µM (inactive)

Q: What about the GI50 (DU-145) of the same compound?
A: 11.3 µM (inactive)

Q: And the GI50 (DLD-1)?
A: 12.7 µM (inactive)

Q: And the GI50 (MCF7)?
A: 7.21 µM (inactive)

Q: What about the GI50 (PC-3) of the same compound?
A: 7.82 µM (inactive)

Q: And the GI50 (CCRF-CEM)?
A: 10.7 µM (inactive)

Q: And the GI50 (EKVX)?
A: 10.6 µM (inactive)

Q: And the GI50 (K562)?
A: 5.33 µM (inactive)

Q: What about the GI50 (T47D) of the same compound?
A: 3.23 µM (inactive)

Q: And the GI50 (OVCAR-4)?
A: 13.8 µM (inactive)

Q: What about the GI50 (TK-10) of the same compound?
A: 11.4 µM (inactive)

Q: And the GI50 (M19-MEL)?
A: 16.4 µM (inactive)

Q: What about the GI50 (Malme-3M) of the same compound?
A: 15 µM (inactive)

Q: And the GI50 (NCI-H226)?
A: 11.3 µM (inactive)

Q: And the GI50 (A498)?
A: 15.2 µM (inactive)

Q: And the GI50 (SN12C)?
A: 10.6 µM (inactive)

Q: And the GI50 (SF-539)?
A: 12.4 µM (inactive)

Q: What about the GI50 (ACHN) of the same compound?
A: 9.46 µM (inactive)

Q: What about the GI50 (DMS-114) of the same compound?
A: 9.06 µM (inactive)

Q: And the GI50 (M14)?
A: 11.2 µM (inactive)

Q: And the GI50 (DMS-273)?
A: 14.3 µM (inactive)

Q: And the GI50 (OVCAR-3)?
A: 9.84 µM (inactive)

Q: And the GI50 (MOLT-4)?
A: 4.24 µM (inactive)

Q: And the GI50 (SNB-75)?
A: 13.3 µM (inactive)

Q: And the GI50 (IGROV-1)?
A: 11.9 µM (inactive)

Q: What about the GI50 (SW-620) of the same compound?
A: 9.51 µM (inactive)

Q: And the GI50 (LOX IMVI)?
A: 9.48 µM (inactive)

Q: What about the GI50 (RPMI-8226) of the same compound?
A: 2.52 µM (inactive)

Q: And the GI50 (SF-295)?
A: 14.9 µM (inactive)

Q: And the GI50 (A549)?
A: 14.1 µM (inactive)

Q: What about the GI50 (BT-549) of the same compound?
A: 2.31 µM (inactive)

Q: What about the GI50 (MDA-MB-231) of the same compound?
A: 9.64 µM (inactive)

Q: Which GI50 (NCI-H23) does the source give for `CCC1=CC2CN3Cn4c(c(COCc5c6n(c7ccccc57)CN5CC7C=C(CC)C5C6(C(=O)OC)C7)c5ccccc54)C(C(=O)OC)(C2)C13` here?
A: > 100 µM (inactive)

Q: What about the GI50 (U-251) of the same compound?
A: > 100 µM (inactive)

Q: What about the GI50 (SK-MEL-5) of the same compound?
A: > 100 µM (inactive)

Q: And the GI50 (XF498)?
A: > 100 µM (inactive)

Q: And the GI50 (HOP-62)?
A: > 100 µM (inactive)

Q: And the GI50 (SK-MEL-28)?
A: > 100 µM (inactive)

Q: And the GI50 (SR)?
A: > 100 µM (inactive)

Q: And the GI50 (COLO 205)?
A: > 100 µM (inactive)

Q: What about the GI50 (CAKI-1) of the same compound?
A: > 100 µM (inactive)

Q: What about the GI50 (SNB-19) of the same compound?
A: > 100 µM (inactive)

Q: And the GI50 (KM12)?
A: > 100 µM (inactive)

Q: What about the GI50 (RXF 393) of the same compound?
A: > 100 µM (inactive)

Q: And the GI50 (KM-20L2)?
A: > 100 µM (inactive)

Q: And the GI50 (HCT-15)?
A: > 100 µM

Q: And the GI50 (OVCAR-8)?
A: > 100 µM (inactive)

Q: And the GI50 (LXFL 529)?
A: > 100 µM (inactive)

Q: And the GI50 (HCT-116)?
A: > 100 µM (inactive)

Q: And the GI50 (UO-31)?
A: > 100 µM (inactive)

Q: And the GI50 (SF-268)?
A: 66.8 µM (inactive)

Q: And the GI50 (786-0)?
A: > 100 µM (inactive)

Q: And the GI50 (UACC-257)?
A: > 100 µM (inactive)

Q: What about the GI50 (NCI-H522) of the same compound?
A: > 100 µM (inactive)

Q: What about the GI50 (NCI-H460) of the same compound?
A: > 100 µM (inactive)

Q: And the GI50 (HT-29)?
A: > 100 µM (inactive)

Q: What about the GI50 (SK-OV-3) of the same compound?
A: 92.5 µM (inactive)

Q: What about the GI50 (SK-MEL-2) of the same compound?
A: > 100 µM (inactive)

Q: What about the GI50 (UACC-62) of the same compound?
A: > 100 µM (inactive)

Q: And the GI50 (HL-60)?
A: > 100 µM (inactive)

Q: And the GI50 (DLD-1)?
A: > 100 µM (inactive)

Q: What about the GI50 (CCRF-CEM) of the same compound?
A: > 100 µM (inactive)

Q: What about the GI50 (EKVX) of the same compound?
A: > 100 µM (inactive)

Q: What about the GI50 (K562) of the same compound?
A: > 100 µM (inactive)

Q: And the GI50 (OVCAR-4)?
A: > 100 µM (inactive)

Q: And the GI50 (TK-10)?
A: > 100 µM (inactive)

Q: What about the GI50 (M19-MEL) of the same compound?
A: 47.2 µM (inactive)

Q: What about the GI50 (Malme-3M) of the same compound?
A: > 100 µM (inactive)

Q: What about the GI50 (NCI-H226) of the same compound?
A: > 100 µM (inactive)

Q: And the GI50 (A498)?
A: > 100 µM (inactive)

Q: And the GI50 (SN12C)?
A: > 100 µM (inactive)

Q: What about the GI50 (ACHN) of the same compound?
A: 68.4 µM (inactive)

Q: And the GI50 (DMS-114)?
A: > 100 µM (inactive)

Q: What about the GI50 (M14) of the same compound?
A: > 100 µM (inactive)

Q: And the GI50 (DMS-273)?
A: > 100 µM (inactive)

Q: And the GI50 (OVCAR-3)?
A: > 100 µM (inactive)

Q: And the GI50 (MOLT-4)?
A: > 100 µM (inactive)

Q: What about the GI50 (IGROV-1) of the same compound?
A: > 100 µM (inactive)

Q: What about the GI50 (SW-620) of the same compound?
A: > 100 µM (inactive)

Q: And the GI50 (LOX IMVI)?
A: > 100 µM (inactive)

Q: What about the GI50 (RPMI-8226) of the same compound?
A: > 100 µM (inactive)

Q: And the GI50 (SF-295)?
A: > 100 µM (inactive)

Q: What about the GI50 (A549) of the same compound?
A: > 100 µM (inactive)
